{"source": "patent US12679877B2", "about": "“NPRA agonists, compositions, and uses thereof” (PharmaIn Corporation, priority 2017, dated 2026)", "key": {"[1]": {"assay": "Plasma ANP level by ELISA after s.c. ANP in the same study", "format": "in vivo, Balb/c mice", "details": "ANP 12 mg/Kg s.c., injection at 0 hour and 6 hours; average of all groups with same dose; value (SEM)", "procedure": "An investigation was carried out to determine whether prolonged presence of ANP in the blood would have a sustained pharmacodynamic effect, reflected by elevation of cGMP blood concentration, and to determine whether that elevation would be proportional to the level of ANP. The level of blood cGMP relative to ANP was determined. […] This problem had not been documented in literature and there was no reason to solve this previously unknown problem. […] For this study, 4 groups of Balb/c mice (n=3/group; female, 5-6 weeks old; 18-25 g) were used and the cGMP levels at various time points after ANP administration with and without 2nd ANP administration were evaluated. […] Two subsequent s.c. (subcutaneous) administrations of the ANP formulated in a polymeric excipient (to increase in vivo stability) were evaluated. […] The plasma samples were analyzed for cGMP using the cGMP ELISA kit (GE Healthcare Life Sciences, Marlborough, MA) according to manufacturer's protocol. […] The level of ANP associated with cGMP was also measured to further confirm receptor depletion was the result of lack of responsiveness if any. The associated level of ANP was measured using an ELISA assay kit (GE Healthcare Life Sciences, Marlborough, MA) according to manufacturer's protocol. […]"}, "[2]": {"system": "natriuretic peptide receptors (NPRA or NPRB)", "assay": "2-point blood cGMP evaluation (2 and 6 hours) after 15 mg/Kg s.c., cGMP Direct Biotrak EIA", "format": "in vivo, CD-1 mice", "details": "for In vivo blood cGMP minus baseline, 2 hour (potency) / In vivo blood cGMP minus baseline, 6 hour (receptor depletion): 15 mg/Kg s.c. in mice (n=3), minus baseline 30 pmol/ml (n=12); for In vivo blood cGMP minus baseline, 2 hour (potency): 2 hours after dosing; for In vivo blood cGMP minus baseline, 6 hour (receptor depletion): 6 hours after dosing; for activity / potency compared to ANP, in words (2 hour data in Table 2): 15 mg/Kg s.c. in mice, blood cGMP", "procedure": "Various derivatives of ANP were made and screened for increase in vivo potency while limiting the apparent receptor depletion effects (or perhaps can act on another cGMP enhancing receptors) by looking at the level of blood cGMP at specific time points. […] Various derivatives were made and tested in vivo to determine the level of blood cGMP at 2 hours and 6 hours after subcutaneous administration of 15 mg/Kg in mice (which was allometrically equivalent to human dose of 1.5 mg/Kg) with the goal of finding derivatives that were therapeutically useful for increasing blood cGMP.\nFor 2-point cGMP evaluation of various derivatives, test samples were dissolved in water (Lonza, Wakersville, MD) before being lyophilized. Prior to use, the lyophilized test sample was dissolved in saline then 15 mg/Kg was injected subcutaneously into female CD-1 mice 6-8 weeks (n=3). Blood samples were collected at 2 and 6 hours with K2EDTA blood collection tube. The collection tube was then centrifuged at 13,000 rpm for 10 minutes at 4° C. to separate plasma. The plasma was analyzed using the cGMP Direct Biotrak EIA (GE Healthcare Life Sciences, Marlborough, MA). Note that by using allometric scaling at exponent of 0.7 [dose in other species=mice dose/((mouse weight/weight of average other species)^0.7)], the 15 mg/Kg in mice is equivalent to about 7.5 mg/Kg rat dose, about 2.5 mg/Kg dog dose, and 1.5 mg/Kg human dose. For the purpose the present disclosure, the 15 mg/Kg in mice as presented in the relevant data examples, should be understood as equivalent to about 7.5 mg/Kg rat dose, which is equivalent to about 2.5 mg/Kg dog dose, which is equivalent to about 1.5 mg/Kg human dose. Because the mice cGMP response to 15 mg/Kg dose of the newly discovered derivatives (see Table 2) was quite high, it would be prudent to use daily doses that are lower than 15 mg/Kg for mice, 7.5 mg/Kg for rat, 2.5 mg/Kg for dog, and 1.5 mg/Kg for human since any higher dose may result in too much increase in cGMP that can result in too much or even dangerous drop in blood pressure unless formulated in a very slow release delivery system. In fact based on cGMP response it was more preferable to use daily doses that are lower than […], 1.5 mg/Kg for rat, 0.5 mg/Kg for dog, and 0.3 mg/Kg for human. Additionally, the level of blood cGMP is preferably between 1.5 to 3-times of the normal baseline level. The blood or plasma cGMP normal baseline level was about 20-50 pmol/ml but could vary slightly depending on the assay kit used to measure the level."}}, "note": "Marks after values point to notes of the source that are not given here. No end group written: not given here. *: point of attachment. CH3(CH2)22CO = C24 acyl (CH3(CH2)22CO-), CCCCCCCCCCCCCCCCCCCCCCCC(=O)*; Docosanoyl = CCCCCCCCCCCCCCCCCCCCCC(=O)*; Stearoyl = CCCCCCCCCCCCCCCCCC(=O)*"}
{"molecule": "CC[C@H](C)[C@@H]1NC(=O)[C@H](CCCNC(=N)N)NC(=O)[C@H](CC(=O)O)NC(=O)[C@H](CCSC)NC(=O)[C@H](CCCNC(=N)N)NC(=O)CNC(=O)CNC(=O)[C@H](Cc2ccccc2)NC(=O)[C@@H](NC(=O)[C@H](CO)NC(=O)[C@H](CO)NC(=O)[C@H](CCCNC(=N)N)NC(=O)[C@H](CCCNC(=N)N)NC(=O)[C@H](CC(C)C)NC(=O)[C@@H](N)CO)CSSC[C@@H](C(=O)N[C@@H](CC(N)=O)C(=O)N[C@@H](CO)C(=O)N[C@@H](Cc2ccccc2)C(=O)N[C@@H](CCCNC(=N)N)C(=O)N[C@@H](Cc2ccc(O)cc2)C(=O)O)NC(=O)CNC(=O)[C@H](CC(C)C)NC(=O)CNC(=O)[C@H](CO)NC(=O)[C@H](CCC(N)=O)NC(=O)[C@H](C)NC(=O)CNC1=O", "note": "[SEQ ID NO. 1]", "values": [{"measurement": "2 hrs. ANP level", "setting": "[1]", "value": "67.24 (6.92)* ng/ml"}]}
{"molecule": "CH3(CH2)16COKKKKGGGGLSKGCFGLKLDRIGSMSGLGC (Stearoyl-KKKKGGGGLSKGCFGLKLDRIGSMSGLGC; not fully specified (bridges); printed as CH3(CH2)16COKKKKGGGGLSKGCFGLKLDRIGSMSG; cysteine pairing not given here; listed as Homo Sapiens) [SEQ ID NO. 72]", "values": [{"measurement": "In vivo blood cGMP minus baseline, 2 hour (potency)", "setting": "[2]", "value": 544.99, "unit": "nM"}, {"measurement": "In vivo blood cGMP minus baseline, 6 hour (receptor depletion)", "setting": "[2]", "value": 368.29, "unit": "pmol/mL"}, {"measurement": "activity / potency compared to ANP, in words (2 hour data in Table 2)", "setting": "[2]", "value": "increased potency"}]}
{"molecule": "CH3(CH2)20COKKKKGGGSLRRSSCFGGRMDRIGAQSGLGCNSFRY (Docosanoyl-KKKKGGGSLRRSSCFGGRMDRIGAQSGLGCNSFRY; not fully specified (bridges); printed as CH3(CH2)20COKKKKGGGSLRRSSCFGGRMDRIGAQSGLGCNSFRY; cysteine pairing not given here; listed as Homo Sapiens) [SEQ ID NO. 94]", "values": [{"measurement": "In vivo blood cGMP minus baseline, 2 hour (potency)", "setting": "[2]", "value": 263.8, "unit": "nM"}, {"measurement": "In vivo blood cGMP minus baseline, 6 hour (receptor depletion)", "setting": "[2]", "value": 255.4, "unit": "pmol/mL"}]}
{"molecule": "CH3(CH2)22COKKKKGGGGLSKGCFGLKLDRIGSMSGLGC ({CH3(CH2)22CO}-KKKKGGGGLSKGCFGLKLDRIGSMSGLGC; not fully specified (bridges); printed as CH3(CH2)22COKKKKGGGGLSKGCFGLKLDRIGSMSGLGC; cysteine pairing not given here; listed as Homo Sapiens) [SEQ ID NO. 122]", "values": [{"measurement": "In vivo blood cGMP minus baseline, 2 hour (potency)", "setting": "[2]", "value": 251.92, "unit": "nM"}, {"measurement": "In vivo blood cGMP minus baseline, 6 hour (receptor depletion)", "setting": "[2]", "value": 209.24, "unit": "pmol/mL"}]}
{"molecule": "CH3(CH2)22COKKKKGGGSLRRSSCFGGRMDRIGAQSGLGCNSFRY ({CH3(CH2)22CO}-KKKKGGGSLRRSSCFGGRMDRIGAQSGLGCNSFRY; not fully specified (bridges); printed as CH3(CH2)22COKKKKGGGSLRRSSCFGGRMDRIGAQSGLGCNSFRY; cysteine pairing not given here; listed as Homo Sapiens) [SEQ ID NO. 95]", "values": [{"measurement": "In vivo blood cGMP minus baseline, 2 hour (potency)", "setting": "[2]", "value": 260.8, "unit": "nM"}, {"measurement": "In vivo blood cGMP minus baseline, 6 hour (receptor depletion)", "setting": "[2]", "value": 245.6, "unit": "pmol/mL"}]}
{"molecule": "GGGGLSKGCFGLKLDRIGSMSGLGC (listed as Homo Sapiens) [SEQ ID NO. 60]", "values": [{"measurement": "In vivo blood cGMP minus baseline, 2 hour (potency)", "setting": "[2]", "value": 49.98, "unit": "nM"}, {"measurement": "In vivo blood cGMP minus baseline, 6 hour (receptor depletion)", "setting": "[2]", "value": 16.85, "unit": "pmol/mL"}, {"measurement": "activity / potency compared to ANP, in words (2 hour data in Table 2)", "setting": "[2]", "value": "no loss activity compared to ANP"}]}
{"molecule": "GGGSLRRSSCFGGRMDRIGAQSGLGCNSFRY (listed as Homo Sapiens) [SEQ ID NO. 4]", "values": [{"measurement": "In vivo blood cGMP minus baseline, 2 hour (potency)", "setting": "[2]", "value": 41.66, "unit": "nM"}, {"measurement": "In vivo blood cGMP minus baseline, 6 hour (receptor depletion)", "setting": "[2]", "value": -11.79, "unit": "pmol/mL"}]}
{"molecule": "GGLSKGCFGLKLDRIGSMSGLGC (listed as Homo Sapiens) [SEQ ID NO. 58]", "values": [{"measurement": "In vivo blood cGMP minus baseline, 2 hour (potency)", "setting": "[2]", "value": 27.09, "unit": "nM"}, {"measurement": "In vivo blood cGMP minus baseline, 6 hour (receptor depletion)", "setting": "[2]", "value": 5.10, "unit": "pmol/mL"}, {"measurement": "activity / potency compared to ANP, in words (2 hour data in Table 2)", "setting": "[2]", "value": "no loss activity compared to ANP"}]}
{"molecule": "GGSLRRSSCFGGRMDRIGAQSGLGCNSFRY (listed as Homo Sapiens) [SEQ ID NO. 3]", "values": [{"measurement": "In vivo blood cGMP minus baseline, 2 hour (potency)", "setting": "[2]", "value": 46.79, "unit": "nM"}, {"measurement": "In vivo blood cGMP minus baseline, 6 hour (receptor depletion)", "setting": "[2]", "value": 0.16, "unit": "pmol/mL"}]}
{"molecule": "GLSKGCFGLKLDRIGSMSGLGC [SEQ ID NO. 57, reference compound]", "values": [{"measurement": "In vivo blood cGMP minus baseline, 2 hour (potency)", "setting": "[2]", "value": 93.75, "unit": "nM"}, {"measurement": "In vivo blood cGMP minus baseline, 6 hour (receptor depletion)", "setting": "[2]", "value": 24.55, "unit": "pmol/mL"}]}
{"molecule": "GSLRRSSCFGGRMDRIGAQSGLGCNSFRY (listed as Homo Sapiens) [SEQ ID NO. 2]", "values": [{"measurement": "In vivo blood cGMP minus baseline, 2 hour (potency)", "setting": "[2]", "value": 44.08, "unit": "nM"}, {"measurement": "In vivo blood cGMP minus baseline, 6 hour (receptor depletion)", "setting": "[2]", "value": -13.85, "unit": "pmol/mL"}]}
{"molecule": "KGGGSLRRSSCFGGRMDRIGAQSGLGCNSFRY (listed as Homo Sapiens) [SEQ ID NO. 5]", "values": [{"measurement": "In vivo blood cGMP minus baseline, 2 hour (potency)", "setting": "[2]", "value": 59.96, "unit": "nM"}, {"measurement": "In vivo blood cGMP minus baseline, 6 hour (receptor depletion)", "setting": "[2]", "value": 44.34, "unit": "pmol/mL"}]}
{"molecule": "KKGGGSLRRSSCFGGRMDRIGAQSGLGCNSFRY (listed as Homo Sapiens) [SEQ ID NO. 6]", "values": [{"measurement": "In vivo blood cGMP minus baseline, 2 hour (potency)", "setting": "[2]", "value": 28.6, "unit": "nM"}, {"measurement": "In vivo blood cGMP minus baseline, 6 hour (receptor depletion)", "setting": "[2]", "value": -4.81, "unit": "pmol/mL"}]}
{"molecule": "KKKGGGSLRRSSCFGGRMDRIGAQSGLGCNSFRY (listed as Homo Sapiens) [SEQ ID NO. 7]", "values": [{"measurement": "In vivo blood cGMP minus baseline, 2 hour (potency)", "setting": "[2]", "value": 23.40, "unit": "nM"}, {"measurement": "In vivo blood cGMP minus baseline, 6 hour (receptor depletion)", "setting": "[2]", "value": -1.19, "unit": "pmol/mL"}]}
{"molecule": "KKKKGGGSLRRSSCFGGRMDRIGAQSGLGCNSFRY (listed as Homo Sapiens) [SEQ ID NO. 8]", "values": [{"measurement": "In vivo blood cGMP minus baseline, 2 hour (potency)", "setting": "[2]", "value": 53.00, "unit": "nM"}, {"measurement": "In vivo blood cGMP minus baseline, 6 hour (receptor depletion)", "setting": "[2]", "value": 15.25, "unit": "pmol/mL"}]}
